# Experimental data: PMC11148080, “Ru(II)-based complexes containing 2-thiouracil derivatives suppress liver cancer stem cells by targeting NF-κB and Akt/mTOR signaling” (Cell Death Discovery, 2024)
# Values joined by “and” are separate entries in the source; they are usually repeats but may differ in a detail not shown here. Equal entries are not always repeated.
# Experiments:
# [1] = system: BAD KO SV40 MEF; assay: Alamar Blue survival curves; type: cell-based, mouse; details: for involvement of proapoptotic protein BAD in cell death: BAD KO SV40 MEF vs WT SV40 MEF; for IC50: BAD KO SV40 MEF, 72 h
# Experimental: (§1) A Quantification of mitochondrial membrane depolarization in HepG2 cells after 24 h of incubation with complex 1 or 2, as determined by flow cytometry. B and C Quantification of PARP (Asp214) cleavage in HepG2 cells after 24 h of incubation with complex 1 (8 μM) or 2 (6 μM), as determined by flow cytometric analysis. MFI: Mean fluorescence intensity. D Survival curves of WT SV40 MEFs and BAD KO SV40 MEFs upon treatment with complexes 1 and 2 and 5-fluorouracil (5-FU, used as a positive control). The curves were obtained from at least three biological replicates carried out in duplicate using the Alamar Blue assay after 72 h of incubation. E DNA fragmentation (sub-G0/G1 cells) and cell cycle distribution (G0/G1, S and G2/M phases) of WT SV40 MEFs and BAD KO SV40 MEFs after 48 h of incubation with complexes 1 (10 μM) and 2 (10 μM) or 5-FU (40 μM). The vehicle (0.2% DMSO) was used as a negative control (CTL). The data are expressed as the mean ± S.E.M. of three biological replicates carried out in duplicate. *P < 0.05 compared to CTL by one-way analysis of variance (ANOVA) followed by Dunnett’s multiple comparisons test.
# (§2) The Alamar Blue assay was used to measure cell viability, as previously described. Adherent cells were seeded in 96-well plates at a density of 7 × 10^3 cells per well, and suspended cells were seeded at 3 × 10^4 cells per well. Drugs were added to each well after overnight incubation for adherent cells or immediately after seeding for suspension cells, and incubation continued for an additional 72 h. […] Four hours (for cell lines) or 24 h (for primary cultures) before the end of incubation, 20 μL of resazurin (30 μM) (Sigma‒Aldrich Co. St. Louis, MO, USA) was added to each well. The absorbance at 570 and 600 nm was measured using a SpectraMax 190 microplate reader (Molecular Devices, Sunnyvale, CA, USA).
# [2] = system: WT SV40 MEF; assay: Alamar Blue survival curves; type: cell-based, mouse; details: 72 h
# Experimental: as §1, §2
# [3] = system: HepG2 cells; assay: qPCR array gene expression; type: cell-based, human; set-up: key to RQ MTOR / RQ GSTP1 / RQ TXN / RQ TXNRD1 / RQ CTSS / RQ TOP2B / RQ NFKB1 / RQ HDAC1 / RQ AURKC / RQ NTN3 / RQ HDAC6 / RQ TNKS: RQ by 2^-ΔΔCT, fold vs 0.2% DMSO calibrator (=1); key to RQ BCL2 / RQ BIRC5 / RQ ERBB2 / RQ ERBB3 / RQ IGF1R / RQ CTSD / RQ ESR1 / RQ CDC25A / RQ HIF1A / RQ CDK9 / RQ MDM2 / RQ TP53 / RQ KRAS / RQ HDAC11 / RQ HDAC8: fold change by 2^-ΔΔCT vs 0.2% DMSO calibrator (=1); details: 12 h; 8 µM complex 1, 6 µM complex 2
# Experimental: Total RNA was extracted using the RNeasy Plus Mini Kit (Qiagen; Hilden, Germany) following the manufacturer’s instructions. A NanoDrop® 1000 spectrophotometer (Thermo Fisher Scientific, Waltham, Massachusetts, USA) was used to quantify and assess the purity of the RNA. Reverse transcription was performed using the Superscript VILOTM enzyme (Invitrogen Corporation; Waltham, MA, USA), and a TaqMan® array human cancer drug target 96-well plate, fast (ID RPRWENH, Applied BiosystemsTM, Foster City, CA, USA) was used for the gene expression study by qPCR (ABI ViiA7, Applied Biosystems instrument). The cycle conditions were 2 min at 50 °C, 10 min at 95 °C, and 40 cycles of 15 s at 95 °C and 1 min at 60 °C. All the experiments were conducted under DNase/RNase-free conditions. The 2^-ΔΔCT method was used to calculate the relative quantification (RQ) of mRNA expression using Gene Expression SuiteTM Software (Applied BiosystemsTM). Cells treated with the negative control (0.2% DMSO) were used as a calibrator, and the RQs of the reference genes GAPDH, UBC and RPLP0 were used to normalize the responses.
structure (smiles),measurement,setting,value
"F[P-](F)(F)(F)(F)F.O=c1cc[nH]c([S][Ru+])n1.c1ccc(-c2ccccn2)nc1.c1ccc(P(c2ccccc2)c2ccccc2)cc1.c1ccc(P(c2ccccc2)c2ccccc2)cc1 [Complex 1, trans-[Ru(2TU)(PPh3)2(bipy)]PF6]",involvement of proapoptotic protein BAD in cell death,[1],independent of the protein BAD
same,IC50,[1],4.6 µM
same,IC50,[2],5.4 µM
same,RQ ABCC1,[3],2.226
same,RQ AKT1,[3],0.775
same,RQ AKT2,[3],0.889
same,RQ ATF2,[3],1.702
same,RQ AURKA,[3],0.691
same,RQ AURKB,[3],0.759
same,RQ AURKC,[3],1.565
same,RQ BCL2,[3],1.602
same,RQ BIRC5,[3],0.800
same,RQ CDC25A,[3],2.454
same,RQ CDK1,[3],0.664
same,RQ CDK2,[3],0.777
same,RQ CDK4,[3],1.130
same,RQ CDK5,[3],0.572
same,RQ CDK7,[3],2.521
same,RQ CDK8,[3],2.592
same,RQ CDK9,[3],0.937
same,RQ CTSB,[3],0.797
same,RQ CTSD,[3],1.503
same,RQ CTSL,[3],1.271
same,RQ CTSS,[3],1.314
same,RQ EGFR,[3],1.217
same,RQ ERBB2,[3],0.682
same,RQ ERBB3,[3],0.915
same,RQ ESR1,[3],0.564
same,RQ ESR2,[3],2.165
same,RQ GRB2,[3],1.501
same,RQ GSTP1,[3],0.499 and 0.49
same,RQ HDAC1,[3],0.833
same,RQ HDAC2,[3],1.190
same,RQ HDAC3,[3],0.989
same,RQ HDAC4,[3],0.764
same,RQ HDAC6,[3],0.564
same,RQ HDAC7,[3],1.008
same,RQ HDAC8,[3],0.970
same,RQ HDAC11,[3],1.729
same,RQ HIF1A,[3],3.170
same,RQ HRAS,[3],0.753
same,RQ HSP90AA1,[3],2.760
same,RQ HSP90B1,[3],3.676
same,RQ IGF1R,[3],0.916
same,RQ KRAS,[3],1.809
same,RQ MDM2,[3],1.685
same,RQ MDM4,[3],2.263
same,RQ MTOR,[3],0.395 and 0.39
same,RQ NFKB1,[3],0.451 and 0.45
same,RQ NRAS,[3],0.908
same,RQ NTN3,[3],5.849
same,RQ PARP1,[3],0.638
same,RQ PARP4,[3],0.801
same,RQ PDGFRB,[3],0.964
same,RQ PGR,[3],8.929
same,RQ PIK3C2A,[3],0.855
same,RQ PIK3C3,[3],1.001
same,RQ PIK3CA,[3],0.817
same,RQ PLK1,[3],0.520
same,RQ PLK2,[3],1.630
same,RQ PLK3,[3],2.378
same,RQ PLK4,[3],0.743
same,RQ PRKCA,[3],1.667
same,RQ PRKCB,[3],0.327
same,RQ PRKCD,[3],0.661
same,RQ PRKCE,[3],2.615
same,RQ PTGS2,[3],7.499
same,RQ RHOA,[3],0.642
same,RQ RHOB,[3],0.437
same,RQ TERT,[3],0.604
same,RQ TNKS,[3],3.189
same,RQ TOP2A,[3],0.469
same,RQ TOP2B,[3],0.499
same,RQ TP53,[3],1.021
same,RQ TXN,[3],0.546
same,RQ TXNRD1,[3],1.341
"Cc1cc(=O)nc([S][Ru+])[nH]1.F[P-](F)(F)(F)(F)F.c1ccc(-c2ccccn2)nc1.c1ccc(P(c2ccccc2)c2ccccc2)cc1.c1ccc(P(c2ccccc2)c2ccccc2)cc1 [Complex 2, trans-[Ru(6m2TU)(PPh3)2(bipy)]PF6]",involvement of proapoptotic protein BAD in cell death,[1],independent of the protein BAD
same,IC50,[1],4.1 µM
same,IC50,[2],5.1 µM
same,RQ ABCC1,[3],1.941
same,RQ AKT1,[3],1.087
same,RQ AKT2,[3],1.490
same,RQ ATF2,[3],2.672
same,RQ AURKA,[3],1.172
same,RQ AURKB,[3],1.242
same,RQ AURKC,[3],2.011
same,RQ BCL2,[3],1.249
same,RQ BIRC5,[3],1.033
same,RQ CDC25A,[3],6.141
same,RQ CDK1,[3],0.752
same,RQ CDK2,[3],1.120
same,RQ CDK4,[3],1.730
same,RQ CDK5,[3],1.104
same,RQ CDK7,[3],2.039
same,RQ CDK8,[3],3.664
same,RQ CDK9,[3],1.146
same,RQ CTSB,[3],0.972
same,RQ CTSD,[3],1.586
same,RQ CTSL,[3],0.950
same,RQ CTSS,[3],0.866
same,RQ EGFR,[3],1.856
same,RQ ERBB2,[3],1.118
same,RQ ERBB3,[3],1.280
same,RQ ESR1,[3],0.968
same,RQ ESR2,[3],2.732
same,RQ GRB2,[3],2.255
same,RQ GSTP1,[3],0.276 and 0.27
same,RQ HDAC1,[3],16.128
same,RQ HDAC2,[3],2.118
same,RQ HDAC3,[3],3.639
same,RQ HDAC4,[3],0.456
same,RQ HDAC6,[3],1.088
same,RQ HDAC7,[3],2.228
same,RQ HDAC8,[3],1.517
same,RQ HDAC11,[3],3.379
same,RQ HIF1A,[3],3.509
same,RQ HRAS,[3],0.785
same,RQ HSP90AA1,[3],3.278
same,RQ HSP90B1,[3],2.205
same,RQ IGF1R,[3],1.357
same,RQ KRAS,[3],1.185
same,RQ MDM2,[3],0.982
same,RQ MDM4,[3],2.736
same,RQ MTOR,[3],1.092
same,RQ NFKB1,[3],0.760
same,RQ NRAS,[3],0.469
same,RQ NTN3,[3],0.712
same,RQ PARP1,[3],1.065
same,RQ PARP4,[3],2.503
same,RQ PDGFRB,[3],1.004
same,RQ PGR,[3],30.650
same,RQ PIK3C2A,[3],0.839
same,RQ PIK3C3,[3],0.840
same,RQ PIK3CA,[3],0.441 and 0.44
same,RQ PLK1,[3],0.509
same,RQ PLK2,[3],5.868
same,RQ PLK3,[3],2.039
same,RQ PLK4,[3],0.844
same,RQ PRKCA,[3],1.337
same,RQ PRKCB,[3],0.506
same,RQ PRKCD,[3],0.340
same,RQ PRKCE,[3],1.636
same,RQ PTGS2,[3],15.420
same,RQ RHOA,[3],0.628
same,RQ RHOB,[3],0.406
same,RQ TERT,[3],1.051
same,RQ TNKS,[3],2.369
same,RQ TOP2A,[3],0.423
same,RQ TOP2B,[3],0.235
same,RQ TP53,[3],1.658
same,RQ TXN,[3],0.375 and 0.37
same,RQ TXNRD1,[3],0.35
